Reference: patent US20080268123A1, “Onion Flavoured Compounds and Use” (GIVAUDAN SA, priority 2005, published 2008)
Entries after “also recorded” stand apart in the source; their conditions may differ.

Legend:
[1] = Sensory effects of compounds of formula I in water (triangle test, trained panel); conditions: additive 5 mmol/L
Protocol: (§1) Unless otherwise indicated, all sensory tests are triangle tests and are performed according to the guidelines in “Amtliche Sammlung von Untersuchungsverfahren nach § 35 LMBG (Lebensmittel-und Bedarfsgegenständegesetz)”; L 00.90 7 , Untersuchung von Lebensmitteln , Sensorische Prüfverfahren, Dreiecksprüfung (Übernahme der gleichnahmigen Deutschen Norm DIN ISO 4120, Ausgabe Januar 1995), as follows:
(§2) The sensory panel is trained to evaluate the taste of aqueous solutions (4 ml each) of the following standard taste compounds by using a triangle test as described in the literature (Wieser and Belitz, Z. Lebensm. Unters. Forsch., 1975, 159, 65-72): sucrose (40 mmol/L) for sweet taste; citric acid (5 mmol/L) for sour taste; NaCl (12 mmol/L) for salty taste; caffeine (2 mmol/L) for bitter taste; and monosodium glutamate (MSG; 6 mmol/L) for umami taste. For kokumi taste, a solution of glutathione (10 mmol/L) in diluted chicken broth concentrate (Gourmet Bouillon Huhn, Maggi, Singen, Germany; 3 g/100 g bottled water (Evian®)) is prepared and compared to the taste of chicken broth with no glutathione added. All sensory analyses are performed in a sensory panel room at 22-25° C. over three different sessions by a trained panel of 8 to 10 individuals.
(§3) For recording the taste profiles, samples are prepared as indicated in the examples below. Taste profiles of samples are determined in a triangle test in three different sessions. Panellists refrain from eating or drinking for at least 1 hour prior to the session. At the start of the session and before each trial, the subject rinsed with water and expectorated. The participants receive a set of two blanks and one taste sample. Liquid samples are swirled around in the mouth briefly and expectorated. Solid samples are chewed for 20 seconds and then expectorated. […] Each sample with additive is compared to two reference samples without additives.

[2] = Onion flavour compounds in mushroom cream soup (sensory panel); conditions: mushroom cream soup pH 6.0, additive 1 mmol/L
Protocol: as §1, §3
Cys-O—C2H5and γ-Glu-Cys-O—C2H5are added to mushroom cream soup (Unox, Unilever Bestfoods, Germany), pH 6.0 in a concentration of 1 mmol/L samples are evaluated directly after homogenisation.

[3] = Onion flavour compounds in barbecue sauce (sensory panel); conditions: barbecue sauce pH 3.3, additive 5 mmol/L
Protocol: as §1, §3
Onion flavour compounds as indicated in the table below are added to barbecue sauce (Kraft Foods, Germany), pH 3.3.

[4] = Sensory effects of compounds of formula I in chicken broth (triangle test, trained panel); conditions: for kokumi intensity (0-5): broth without additives = 2
Protocol: as §1, §2, §3
Sensory tests (triangle test) are performed at least three times for each compound using sensory panels of different individuals to confirm results.
Chicken Broth is prepared by dilution of 3 g chicken broth concentrate (Gourmet Bouillon Huhn; Maggi, Singen, Germany) with 100 ml water (Evian). Additives are added as specified in table below.
The pH-value of all samples is adjusted to 6.5 using formic acid (0.1 mol/L) or sodium hydroxide (0.1 mol/L).
Flavour intensity (onion or kokumi) is rated from 0-5 according to a scale from 0 to 5 (with 5 most intensive). GSH (5 mmol/L) is determined to have an kokumi intensity of 3 in all tests.
The additive is added to a consumable and the sample is homogenised. The samples are presented to the sensory panel directly after homogenisation.
For each sample, flavour intensity is rated and panelists are asked to describe sensory characteristics.

[5] = Onion flavour compounds in tomato soup (sensory panel)
Protocol: as §1, §3
Cys-O—C2H5 and γ-Glu-Cys-O—C2H5 are added to tomato soup (Unox, Unilever Bestfoods, Germany, pH 4,5), in the concentrations indicated below.

[6] = chicken broth pH 6.5, additive 5 mmol/L
[7] = chicken broth pH 6.5, additive 5 mmol/L, scale 0 to 5 (5 most intensive)
[8] = chicken broth pH 6.5, additive 5 mmol/L, scale 0 to 5
[9] = tomato soup pH 4,5, additive 1 mmol/L
[10] = tomato soup pH 4,5, additive 5 mmol/L
[11] = chicken broth pH 6.5, additive 30 mmol/L (positive control)
[12] = chicken broth pH 6.5, additive 10 mmol/L (positive control)

Row | Molecule | Onion flavour intensity [1] | Sensory description [1] | Sensory descriptors [4, 6] | onion flavour intensity (0-5) [4, 7] | kokumi intensity (0-5) [4, 8] | other results
1 | CCOC(=O)CNC(=O)[C@H](CS)NC(=O)CC[C@H](N)C(=O)O [γ-Glu-Cys-Gly-O—C2H5] | 0 | intensely bitter |  |  |  | 
2 | CCOC(=O)[C@H](CS)NC(=O)CC[C@H](N)C(=O)O [γ-Glu-Cys-O—C2H5] | 4.5 | onion flavour | strong onion flavour, increased | 4 | 3.5 | Test results (sensory description versus reference) [2]: the observed effect is higher; also recorded: Preferred, strong onion like flavour, meaty,; Test results (sensory description versus reference) [3]: more roasty; also recorded: kokumi taste; also recorded: Preferred, strong onion like flavour, meaty,; Test results (sensory description versus reference) [5, 9]: more roasty; also recorded: Preferred, onion like flavour, meaty, roasty, slightly; Test results (sensory description versus reference) [5, 10]: Preferred, strong onion like flavour, meaty, roasty, more; Panel description in text (difference, preference, kokumi taste) ([5]; tomato soup pH 4,5, samples with 1 mmol/L and 5 mmol/L taken together): kokumi taste
3 | CCOC(=O)[C@@H](N)CS [Cys-O—C2H5] | 3.5 | onion flavour | onion flavour | 3 | 2 | Test results (sensory description versus reference) [2]: Preferred, onion like flavour; panelists indicating an onion like flavour [2]: 7 out of 8; Test results (sensory description versus reference) [3]: Preferred, onion like flavour, meaty; Test results (sensory description versus reference) [5, 9]: onion like and slightly meaty flavour; also recorded: Preferred, onion like flavour, slightly meaty; Test results (sensory description versus reference) [5, 10]: onion like and slightly meaty flavour
4 | COC(=O)[C@@H](N)CCSC [Met-O—CH3] | 1 | slight onion flavour | slight onion flavour | 0.5 | 2 | 
5 | CSCC[C@H](N)C(=O)O [Met-OH] | 0 | sweet |  |  |  | 
6 | [Cl-].[Na+] [NaCl, reference compound] |  |  |  |  |  | Sensory descriptors [4, 11]: increased salt taste; onion flavour intensity (0-5) [4, 11]: 0; kokumi intensity (0-5) [4, 11]: 2
7 | γ-Glu-Cys(S—C2H5)-Gly-O—C2H5 | 0 | intensely bitter |  |  |  | 
8 | CCOC(=O)[C@@H](N)CO [Ser-O—C2H5] | 0 | slightly sweet |  |  |  | 
9 | N[C@@H](CCC(=O)N[C@@H](CS)C(=O)O)C(=O)O [γ-Glu-Cys-OH, reference compound] | 0 | tasteless | increased kokumi taste | 0 | 4 | 
10 | COC(=O)[C@@H](N)CO [Ser-O—CH3] | 0 | slightly sweet |  |  |  | 
11 | CCOC(=O)[C@@H](N)CCSC [Met-O—C2H5] | 1.5 | slight onion flavour | slight onion flavour | 1.5 | 2 | 
12 | N[C@@H](CCC(=O)O)C(=O)[O-].[Na+] [MSG, mono sodium glutamate, reference compound] |  |  |  |  |  | Sensory descriptors [4, 12]: increased umami taste; onion flavour intensity (0-5) [4, 12]: 0; kokumi intensity (0-5) [4, 12]: 2
13 | N[C@@H](CCC(=O)N[C@@H](CS)C(=O)NCC(=O)O)C(=O)O [GSH, reduced form, glutathione, reference compound] |  |  | increased kokumi taste | 0 | 3 | 
14 | N[C@@H](CS)C(=O)O [Cys-OH, reference compound] | 0 | sweet | increased sweetness | 0 | 2 | 
15 | COC(=O)[C@@H](N)CS [Cys-O—CH3] | 2.5 | onion flavour | onion flavour | 2 | 2 | 
